Patent publication US20050230662A1, “Diaminostilbene derivatives” (priority 1999, published 2005)

Assay: evaluation of solubility in water (dissolving at 40° C., then deposition on ice bath at 0° C.)
Type: physicochemical
Settings: for Solubility at 40° C.: time to dissolve 20 g sample in 100 mL water on warm bath at 40° C., stirred; for Solubility of 0° C.: time to deposition, aqueous solution (20 g/100 mL) on ice bath under stirring
Procedure: Compounds I-1, I-2, I-4, I-11, I-12, and I-22 obtained above, and the Comparison Compounds a, b, c and d were subjected to evaluation of solubility in water.
Water (100 mL) was added to 20 g of each sample, and the mixture was placed on a warm bath (at 40° C.), and stirred using a magnetic stirrer, so that the added sample was dissolved in the warm water. Then, the obtained aqueous solution was placed on an ice bath under stirring.

SMILES	Solubility at 40° C.	Solubility of 0° C.
O=S(=O)([O-])CCNc1nc(NCCCO)nc(Nc2ccc(C=Cc3ccc(Nc4nc(NCCCO)nc(NCCS(=O)(=O)[O-])n4)cc3S(=O)(=O)[O-])c(S(=O)(=O)[O-])c2)n1.[Na+].[Na+].[Na+].[Na+] [Comp. a, reference compound]	some insoluble remained at 300 sec.	–
O=S(=O)([O-])CCNc1nc(NCC(O)CO)nc(Nc2ccc(C=Cc3ccc(Nc4nc(NCCS(=O)(=O)[O-])nc(NCC(O)CO)n4)cc3S(=O)(=O)[O-])c(S(=O)(=O)[O-])c2)n1.[Na+].[Na+].[Na+].[Na+] (stereo not shown) [Comp. I-1]	dissolved within 120 sec.	No deposition within 180 sec.
O=S(=O)([O-])CCNc1nc(NCCC(O)CO)nc(Nc2ccc(C=Cc3ccc(Nc4nc(NCCC(O)CO)nc(NCCS(=O)(=O)[O-])n4)cc3S(=O)(=O)[O-])c(S(=O)(=O)[O-])c2)n1.[Na+].[Na+].[Na+].[Na+] (stereo not shown) [Comp. I-4]	–	No deposition within 180 sec.
O=S(=O)([O-])CCNc1nc(NCCOCCO)nc(Nc2ccc(C=Cc3ccc(Nc4nc(NCCOCCO)nc(NCCS(=O)(=O)[O-])n4)cc3S(=O)(=O)[O-])c(S(=O)(=O)[O-])c2)n1.[Na+].[Na+].[Na+].[Na+] [Comp. I-11]	dissolved within 120 sec.	No deposition within 180 sec.
CC(C)(CO)CNc1nc(NCCS(=O)(=O)[O-])nc(Nc2ccc(C=Cc3ccc(Nc4nc(NCCS(=O)(=O)[O-])nc(NCC(C)(C)CO)n4)cc3S(=O)(=O)[O-])c(S(=O)(=O)[O-])c2)n1.[Na+].[Na+].[Na+].[Na+] [Comp. b, reference compound]	some insoluble remained at 300 sec.	–
